Measurements as given in paper PMC7566913, “Dual Gene Delivery Reagents From Antiproliferative Alkylphospholipids for Combined Antitumor Therapy” (Frontiers in Chemistry, 2020).

Legend:
[1] = CMC/CAC by pyrene fluorescent probe technique in ultrapure water; format: physicochemical; conditions: pyrene fluorescence
Experimental: The pro-APL molecules have been specifically engineered so they can be metabolized in situ under a biological stimulus to revert to the parent APL with antiproliferative activity. […] We thus aimed to determine the self-assembly properties of the APL prodrugs. […] Pyrene is a probe which fluorescence is sensitive to the polarity of the solubilizing medium. […] Fluorescence measurements were carried out in ultrapure water and data obtained for the various APLs and their prodrugs are shown in Table 2.
Pro-APLs Self-Assembly Properties
Starting from a lipid film, compounds were […]

sheep RBC = experiment: Hemolytic activity, red blood cell leakage assay; conditions: 37°C
Experimental: To evaluate this hypothesis, the hemolytic activity of the APLs and pro-APLs was measured. Sheep RBC were incubated for 1 h with escalating doses of aqueous dispersion of the compounds at 37°C. At the end of the incubation period, hemoglobin leakage was determined spectrophotometrically.
Thus, in order to better characterize the hemolytic effect of the pro-APLs, the incubation period has been extended and release of hemoglobin was measured after 24 h.
Red blood cell (RBC) leakage assay was carried out according to a previously described procedure
(Evans et al, 2013). RBC were prepared from defibrinated sheep blood. Briefly, blood sample (5 mL) was centrifuged at 500 x g for 5 min. After removal of the yellow upper layer, an equal volume of

16HBE cells = experiment: Cytotoxicity, MTT assay, 16HBE; format: cell-based, human; conditions: Homo sapiens, 24 h at 37°C
Experimental: (§1) The cells were exposed for a 24-h period to increasing concentration of the pro-APLs, ranging from 500 nM to 1 mM, and cell viability was assessed using the MTT colorimetric assay (Mosmann, [1983]). For the three cell lines, viability decreased in a dose-dependent manner in response to APLs and pro-APLs (Supplementary Figures 2–4). Using the best-fit regression curve method, the IC50 value (concentration that provokes 50% inhibition of the cell growth) was calculated for each compound (Table 4). The three cell lines responded to the compounds with varying sensitivities. […] This is attributed to enzyme-mediated hydrolysis of the pro-APL compounds in the complemented culture medium or in the intracellular compartment, competing with pure pH-controlled chemical hydrolysis. According to its structure, a pro-APL may or not be a substrate for specific lipases and, thus, may or not be hydrolyzed into the parent cytotoxic compound. […]
(§2) At confluency, cells were released […]
(§3) Cells were seeded into 96-well plates (Becton-Dickinson) at the required density (vide supra) in 100 µL of serum containing culture medium. […]
(§4) Mitochondrial activity measurements (MTT assay) was used to assess cytotoxicity of the compounds.
(§5) Lipid samples were prepared from a lipid film (3.6 µmol of compound evaporated from an ethanolic solution) hydrated with aqueous glucose 5 % and vigorously vortexed for 20 s before serial dilution in aqueous glucose 5 %. For addition of lipid samples to cell culture, part of the culture medium in the culture plates prepared the day before (25 µL) was removed and replaced by lipid samples (25 µL). Negative control was obtained by adding glucose 5 % to the cells instead of lipoplexes.
(§6) After a 24-h incubation period at 37 °C, culture supernatant was removed, cells were carefully washed with PBS and MTT (100 µL, 0.5 mg/mL) in complete culture medium was added. After a 1-h incubation period at 37 °C, the MTT sol ution was removed and DMSO (100 µL) was added to lyse cells and dissolve reduced MTT. Intensity of MTT reduction was then evaluated by measuring absorbance at 492 nm. Viability of cells treated with lipids or lipoplexes was expressed as the percentage of the absorbance measured in untreated cells. Value for each sample is the mean of triplicate determinations (± SD). IC50 values were determined within the 95 % confidence interval using nonlinear regression analysis with the GraphPad Prism software (GraphPad Software, San […]
(§7) All data are representative of a triplicate determination and are presented as the mean ± SD.
(§8) Statistical significance between treatments was assessed by one-way analysis of variance (ANOVA) followed by the Dunnett multiple comparison test, using the Kaleidagraph 4.5 software (Synergy Software, Reading, PA, USA). Data were considered as statistically significant for p value less than

A549 cells [2] = experiment: Cytotoxicity, MTT assay, A549; format: cell-based, human; conditions: Homo sapiens, A549, 24 h at 37°C
Experimental: as §1, §2, §3, §4, §5, §6, §7, §8

H292 cells = experiment: Cytotoxicity, MTT assay, H292; format: cell-based, human; conditions: Homo sapiens, NCI-H292, H292, 24 h at 37°C
Experimental: as §1, §2, §3, §4, §5, §6, §7, §8

A549 cells [3] = experiment: Gene transfer efficiency, pCMV-Gluc luciferase reporter gene assay; format: cell-based, human; conditions: A549, N/P 3, 1 eq. DOPE
Text: The efficacy of the pro-APLs to mediate intracellular delivery of a plasmid DNA was examined in A549 human lung epithelial carcinoma cells using the pCMV-Gluc reporter gene encoding the luciferase of Gaussia princeps. This luciferase is secreted by cells and transgene expression can be conveniently assessed by standard bioluminescence measurements on aliquots of the cell culture supernatant, without need for prior cell lysis. Lipoplexes were formulated in glucose 5% at N/P ratios of 1, 3, and 5, with increasing amounts of DOPE as a helper lipid. They were deposited onto cells in the presence of 10% serum and luciferase activity was measured after 24 h (Figure 3). […] The influence of the nature of the pendant hydrophobic arm was also examined.
To investigate the effect of serum on the gene delivery properties of the APL prodrugs, cells were treated with lipoplexes in the presence of an increasing concentration of serum (Figure 5). Two DNA doses were considered.
Figure 5 Transfection efficiency of pro-APLs ME12 (A), PE12 (B), and EE12 (C) as a function of serum content. Pro-APL/DNA complexes were prepared at N/P 3, with 1 molar eq. of DOPE. A549 cells (6,000 cells/well) were seeded into 96-well plates in 100 μL of culture medium containing 10% serum. Twenty-four hours later, cell supernatant was replaced with culture medium complemented with increasing amounts of serum (from 10 to 75%) just before adding the lipoplexes (0.2 and 0.4 μg of DNA per well; light and deep purple bars, resp.). Control (light blue bar) refers to basal bioluminescence measured in untreated cells. […] Statistical significance vs. control. ***p < 0.001, **p < 0.01, *p < 0.05.

CCCCCCCCCCCCCCCCCCOP(=O)(OCOC(=O)CCCCCCCCCCC)OC1CC[N+](C)(C)CC1.[Cl-] (centres unmarked) [PE12, 4-((((Dodecanoyloxy)methoxy)(octadecyloxy)phosphoryl)oxy)-1,1-dimethylpiperidin-1-ium chloride]
CMC (APLs) / CAC (pro-APLs) [1]: 2.9 ± 1.0 µM | HA200 (hemolytic activity at 200 μM) (sheep RBC; 1 h): 7.1 ± 0.9% | HA200 (hemolytic activity at 200 μM) (sheep RBC; 24 h): 20.6 ± 5.9% | IC50 (16HBE cells): 231 ± 70 µM | IC50 (A549 cells [2]): 139 ± 4 µM | IC50 (H292 cells): 168 ± 7 µM | Serum content up to which significant transgene expression was mediated (A549 cells [3]; DNA dose 0.2 μg/well): up to 50 % serum | Serum content up to which transfection activity extended (A549 cells [3]; DNA dose 0.4 μg/well): up to 75 % serum
